Read-outs that look alike come from different tables or passages of the source.
How the values were obtained:
ALK = target: T1, ALK (Homo sapiens, UniProt Q9UM73); assay: ALK Kinase Assay (ELISA/TRF, PLC-γ substrate); type: biochemical; conditions: read-out: ALK Potency
T1 construct: host or cells: baculovirus expression system
Method in brief: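 PLC-γ substrate coated at 10 μg/mL in TBS; reaction started with 30 ng/ml ALK, run 15 min at 37° C. Phosphoproduct detected by TRF with Eu-N1-labeled PT66 anti-phosphotyrosine antibody. IC50 from sigmoidal variable-slope fit of percent inhibition versus log concentration.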

JAK2 = target: T2, JAK2 (Homo sapiens, UniProt O60674); assay: Recombinant Human JAK2 Kinase Assay (TRF); type: biochemical; conditions: read-out: JAK2 Potency
T2 construct: host or cells: baculovirus expression system
T2 sequence (O60674 whole entry): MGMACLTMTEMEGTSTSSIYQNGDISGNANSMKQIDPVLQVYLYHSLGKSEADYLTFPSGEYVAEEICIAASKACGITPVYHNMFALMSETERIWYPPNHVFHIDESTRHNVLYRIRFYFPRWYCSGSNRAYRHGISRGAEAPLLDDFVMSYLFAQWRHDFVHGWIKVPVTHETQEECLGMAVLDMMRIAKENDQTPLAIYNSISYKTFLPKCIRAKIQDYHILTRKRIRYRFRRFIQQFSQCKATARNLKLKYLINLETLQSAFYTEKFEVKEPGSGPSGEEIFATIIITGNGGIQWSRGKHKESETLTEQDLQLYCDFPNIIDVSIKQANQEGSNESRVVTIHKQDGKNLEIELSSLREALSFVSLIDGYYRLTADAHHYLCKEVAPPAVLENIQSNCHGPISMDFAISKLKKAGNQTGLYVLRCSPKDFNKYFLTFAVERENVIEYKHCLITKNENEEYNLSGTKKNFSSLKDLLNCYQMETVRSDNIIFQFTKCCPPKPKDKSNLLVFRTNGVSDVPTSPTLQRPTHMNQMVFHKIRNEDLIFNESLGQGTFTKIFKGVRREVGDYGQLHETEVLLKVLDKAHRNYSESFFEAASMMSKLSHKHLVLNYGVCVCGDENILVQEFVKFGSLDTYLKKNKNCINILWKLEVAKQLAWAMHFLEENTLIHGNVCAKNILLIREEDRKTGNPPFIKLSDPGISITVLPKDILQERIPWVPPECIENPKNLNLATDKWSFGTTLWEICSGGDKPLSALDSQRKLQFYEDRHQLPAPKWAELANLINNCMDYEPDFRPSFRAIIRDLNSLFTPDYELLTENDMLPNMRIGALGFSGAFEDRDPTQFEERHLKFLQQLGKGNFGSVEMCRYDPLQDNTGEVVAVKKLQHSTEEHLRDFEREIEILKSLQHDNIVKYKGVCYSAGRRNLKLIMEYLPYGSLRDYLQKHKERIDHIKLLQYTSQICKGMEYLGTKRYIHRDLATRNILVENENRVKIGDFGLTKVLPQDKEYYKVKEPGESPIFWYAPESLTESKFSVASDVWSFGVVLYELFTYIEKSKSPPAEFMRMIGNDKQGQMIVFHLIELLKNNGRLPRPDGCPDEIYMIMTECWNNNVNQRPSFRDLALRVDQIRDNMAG
Method in brief: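 Baculovirus-expressed JAK2 (15 ng/ml) phosphorylated a biotinylated 15-mer peptide captured on Neutravidin-coated plates, in 20 mM HEPES pH 7.2 with 0.2 μM ATP, 1 mM MnCl2, 0.1% BSA and 2.5% DMSO. Reaction ran 20 min at room temperature; phosphopeptide was detected by time-resolved fluorescence with Eu-N1-labelled PY100 antibody.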

[1] = ALK kinase inhibition, 1 μM ATP
[2] = JAK2 kinase inhibition, 0.2 μM ATP

T1 sequence (Q9UM73 19-1620): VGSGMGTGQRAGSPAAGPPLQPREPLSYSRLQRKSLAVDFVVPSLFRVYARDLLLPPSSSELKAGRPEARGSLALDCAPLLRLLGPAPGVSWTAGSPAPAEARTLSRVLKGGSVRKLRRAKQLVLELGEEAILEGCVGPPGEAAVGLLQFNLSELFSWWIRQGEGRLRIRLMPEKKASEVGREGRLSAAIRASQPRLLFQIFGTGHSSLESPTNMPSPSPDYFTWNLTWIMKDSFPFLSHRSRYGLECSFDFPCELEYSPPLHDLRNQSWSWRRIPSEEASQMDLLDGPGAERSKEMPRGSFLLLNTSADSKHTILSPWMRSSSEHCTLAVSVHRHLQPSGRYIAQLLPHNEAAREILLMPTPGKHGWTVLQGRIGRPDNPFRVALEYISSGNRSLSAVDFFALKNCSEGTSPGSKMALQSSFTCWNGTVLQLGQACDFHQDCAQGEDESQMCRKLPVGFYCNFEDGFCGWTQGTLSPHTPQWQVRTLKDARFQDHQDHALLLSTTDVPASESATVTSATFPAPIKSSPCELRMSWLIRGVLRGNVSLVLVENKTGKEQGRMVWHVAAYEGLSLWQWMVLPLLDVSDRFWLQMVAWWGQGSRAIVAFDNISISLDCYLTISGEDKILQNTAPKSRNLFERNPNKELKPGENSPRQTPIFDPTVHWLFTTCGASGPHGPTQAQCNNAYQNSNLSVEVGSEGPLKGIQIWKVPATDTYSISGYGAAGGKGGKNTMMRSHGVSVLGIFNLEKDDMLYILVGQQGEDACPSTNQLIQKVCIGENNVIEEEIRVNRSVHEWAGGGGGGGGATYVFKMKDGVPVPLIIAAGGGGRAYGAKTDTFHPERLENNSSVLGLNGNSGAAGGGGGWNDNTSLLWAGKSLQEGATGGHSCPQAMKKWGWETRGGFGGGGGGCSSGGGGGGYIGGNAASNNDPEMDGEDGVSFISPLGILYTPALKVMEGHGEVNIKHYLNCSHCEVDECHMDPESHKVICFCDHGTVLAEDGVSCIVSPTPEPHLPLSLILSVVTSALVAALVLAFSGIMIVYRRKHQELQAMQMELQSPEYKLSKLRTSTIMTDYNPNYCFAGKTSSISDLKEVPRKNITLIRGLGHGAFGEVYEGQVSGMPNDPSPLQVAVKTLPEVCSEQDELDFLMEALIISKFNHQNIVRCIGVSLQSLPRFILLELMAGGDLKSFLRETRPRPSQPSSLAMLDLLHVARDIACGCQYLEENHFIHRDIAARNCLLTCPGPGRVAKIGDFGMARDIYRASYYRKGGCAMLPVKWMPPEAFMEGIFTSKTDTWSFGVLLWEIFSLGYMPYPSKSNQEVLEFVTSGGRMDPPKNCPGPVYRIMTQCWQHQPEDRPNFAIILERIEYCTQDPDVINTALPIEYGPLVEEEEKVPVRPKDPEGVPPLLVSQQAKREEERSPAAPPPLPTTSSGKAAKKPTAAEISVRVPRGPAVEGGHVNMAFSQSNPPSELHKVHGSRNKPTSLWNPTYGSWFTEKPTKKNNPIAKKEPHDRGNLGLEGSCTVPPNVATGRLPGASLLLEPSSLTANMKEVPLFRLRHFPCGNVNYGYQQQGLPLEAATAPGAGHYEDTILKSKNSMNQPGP

| IC50 (ALK; [1]) | IC50 (JAK2; [2]) | IC50 (ALK; ALK Kinase Inhibition) | IC50 (JAK2; JAK2 Kinase Inhibition) | Structure (SMILES) |
| --- | --- | --- | --- | --- |
| 100 to 1000 nM | < 100 nM |  |  | COc1cc(N2CCC(N3CCOCC3)CC2)ccc1Nc1ncc2ccc(-c3cccnc3)n2n1 [Example 1170, [2-Methoxy-4-(4-morpholin-4-yl-piperidin-1-yl)-phenyl]-(7-pyridin-3-yl-pyrrolo[2,1-f][1,2,4]triazin-2-yl)-amine] |
|  |  | 1000 to 10000 nM | < 100 nM | CS(=O)(=O)Nc1ccccc1-c1ccc2cnc(Nc3cccc(N4CCOCC4)c3)nn12 [Example 431, N-{2-[2-(3-Morpholin-4-yl-phenylamino)-pyrrolo[2,1-f][1,2,4]triazin-7-yl]-phenyl}-methanesulfonamide] |
| 100 to 1000 nM | < 100 nM |  |  | CN1C(=O)COc2cc(Nc3ncc4ccc(-c5cccc(NS(C)(=O)=O)c5)n4n3)ccc21 [Example 638, N-{3-[2-(4-Methyl-3-oxo-3,4-dihydro-2H-benzo[1,4]oxazin-7-ylamino)-pyrrolo[2,1-f][1,2,4]triazin-7-yl]-phenyl}methanesulfonamide] |
| 100 to 1000 nM | < 100 nM |  |  | COc1cc(-c2ccc3cnc(Nc4ccc(C5CCN(CC(N)=O)CC5)cc4)nn23)c(OC)nn1 [Example 580, 2-(4-{4-[7-(3,6-Dimethoxy-pyridazin-4-yl)-pyrrolo[2,1-f][1,2,4]triazin-2-ylamino]-phenyl}-piperidin-1-yl)-acetamide] |
|  |  | 100 to 1000 nM | < 100 nM | CC(=O)N1CCCC(C)(C)c2ccc(Nc3ncc4ccc(-c5ccccc5N(C)S(C)(=O)=O)n4n3)cc21 [Example 1366, N-{2-[2-(1-Acetyl-5,5-dimethyl-2,3,4,5-tetrahydro-1H-benzo[b]azepin-8-ylamino)-pyrrolo[2,1-f][1,2,4]triazin-7-yl]-phenyl}-N-methyl-methanesulfonamide] |
| 1000 to 10000 nM | < 100 nM |  |  | CC(C)c1nc2ccc(Nc3ncc4ccc(-c5cccc(S(=O)(=O)NC(C)(C)C)c5)n4n3)cc2[nH]1 [Example 1329, N-tert-Butyl-3-[2-(2-isopropyl-3H-benzimidazol-5-ylamino)-pyrrolo[2,1-f][1,2,4]triazin-7-yl]-benzenesulfonamide] |
|  |  | 1000 to 10000 nM | < 100 nM | COc1ccc(-c2ccc3cnc(Nc4cccc(C5CN(C)CCN5C)c4)nn23)cn1 (stereo not shown) [Example 1519, [3-(1,4-Dimethyl-piperazin-2-yl)-phenyl]-[7-(6-methoxy-pyridin-3-yl)-pyrrolo[2,1-f][1,2,4]triazin-2-yl]-amine] |
| 100 to 1000 nM | < 100 nM |  |  | CN1CCOCc2cc(Nc3ncc4ccc(-c5ccccc5N(C)S(C)(=O)=O)n4n3)ccc21 [Example 616, N-Methyl-N-{2-[2-(1-methyl-1,2,3,5-tetrahydro-benzo[e][1,4]oxazepin-7-ylamino)-pyrrolo[2,1-f][1,2,4]triazin-7-yl]-phenyl}-methanesulfonamide] |
| 1000 to 10000 nM | < 100 nM |  |  | COc1ccc(-c2ccc3cnc(Nc4cnn(CCN5CCOCC5)c4)nn23)cn1 [Example 1192, [7-(6-Methoxy-pyridin-3-yl)-pyrrolo[2,1-f][1,2,4]triazin-2-yl]-[1-(2-morpholin-4-yl-ethyl)-1H-pyrazol-4-yl]-amine] |

More lines, now with the values behind:

| Structure (SMILES) | IC50 (ALK; [1]) | IC50 (JAK2; [2]) | IC50 (ALK; ALK Kinase Inhibition) | IC50 (JAK2; JAK2 Kinase Inhibition) |
| --- | --- | --- | --- | --- |
| COc1ccc(Nc2ncc3ccc(-c4cc(Cl)ccc4OC)n3n2)cc1OC [Example 151, [7-(5-Chloro-2-methoxy-phenyl)-pyrrolo[2,1-f][1,2,4]triazin-2-yl]-(3,4-dimethoxy-phenyl)-amine] |  |  | 100 to 1000 nM | < 100 nM |
| COc1ccccc1-c1ccc2cnc(Nc3cn(CC(=O)N4CCOCC4)cn3)nn12 [Example 1113, 2-{4-[7-(2-Methoxy-phenyl)-pyrrolo[2,1-f][1,2,4]triazin-2-ylamino]-imidazol-1-yl}-1-morpholin-4-yl-ethanone] | 1000 to 10000 nM | < 100 nM |  |  |
| CC(C)(C)NS(=O)(=O)c1cccc(-c2ccc3cnc(Nc4ccc5ncn(CCN6CCOCC6)c5c4)nn23)c1 [Example 1326, N-tert-Butyl-3-{2-[3-(2-morpholin-4-yl-ethyl)-3H-benzimidazol-5-ylamino]-pyrrolo[2,1-f][1,2,4]triazin-7-yl}-benzenesulfonamide] | 100 to 1000 nM | < 100 nM |  |  |
| O=S1(=O)CCN(Cc2ccc(-c3ccc4cnc(Nc5ccc(N6CCOCC6)cc5)nn34)cc2)CC1 [Example 1032, {7-[4-(1,1-Dioxo-1$1(6)-thiomorpholin-4-ylmethyl)-phenyl]-pyrrolo[2,1-f][1,2,4]triazin-2-yl}-(4-morpholin-4-yl-phenyl)-amine] | 100 to 1000 nM | < 100 nM |  |  |
| COc1ccccc1-c1ccc2cnc(Nc3ccc(C4CN(CC(N)=O)C4)cc3)nn12 [Example 583, 2-(3-{4-[7-(2-Methoxy-phenyl)-pyrrolo[2,1-f][1,2,4]triazin-2-ylamino]-phenyl}-azetidin-1-yl)-acetamide] | 100 to 1000 nM | < 100 nM |  |  |
| COc1ccc(-c2ccc3cnc(Nc4ccc(N5CCN(CC(N)=O)CC5)c(F)c4)nn23)cn1 [Example 1414, 2-(4-{2-Fluoro-4-[7-(6-methoxy-pyridin-3-yl)-pyrrolo[2,1-f][1,2,4]triazin-2-ylamino]-phenyl}-piperazin-1-yl)-acetamide] |  |  | 1000 to 10000 nM | < 100 nM |
| COc1ccc(OC)c(-c2ccc3cnc(Nc4ccc(N5CCOCC5)cc4)nn23)c1 [Example 424, [7-(2,5-Dimethoxy-phenyl)-pyrrolo[2,1-f][1,2,4]triazin-2-yl]-(4-morpholin-4-yl-phenyl)-amine] |  |  | 100 to 1000 nM | < 100 nM |
| COc1ccc(-c2ccn3nc(Nc4ccc(N5CCN(C)CC5)cc4)ncc23)cc1 [Example 724, [5-(4-Methoxy-phenyl)-pyrrolo[2,1-f][1,2,4]triazin-2-yl]-[4-(4-methyl-piperazin-1-yl)-phenyl]-amine] | > 10000 nM | > 10000 nM |  |  |
| COc1cc(N2CCC(NCCO)CC2)ccc1Nc1ncc2ccc(-c3ccccc3OC)n2n1 [Example 797, 2-(1-{3-Methoxy-4-[7-(2-methoxy-phenyl)-pyrrolo[2,1-f][1,2,4]triazin-2-ylamino]-phenyl}-piperidin-4-ylamino)-ethanol] | < 100 nM | < 100 nM |  |  |
| CC(C)(C)NS(=O)(=O)c1cccc(-c2ccc3cnc(Nc4ccc(C5CCC(O)CC5)cc4)nn23)c1 (stereo not shown) [Example 568, N-tert-Butyl-3-{2-[4-(4-hydroxy-cyclohexyl)-phenylamino]-pyrrolo[2,1-f][1,2,4]triazin-7-yl}-benzenesulfonamide] | 100 to 1000 nM | < 100 nM |  |  |
| COc1cc(N2CCC(N3CCOCC3)CC2)ccc1Nc1ncc2ccc(-c3cccc4cccnc34)n2n1 [Example 512, [2-Methoxy-4-(4-morpholin-4-yl-piperidin-1-yl)-phenyl]-(7-quinolin-8-yl-pyrrolo[2,1-f][1,2,4]triazin-2-yl)-amine] | 100 to 1000 nM | 1000 to 10000 nM |  |  |
| c1ccc(NCc2ccc3cnc(Nc4ccc(N5CCOCC5)cc4)nn23)cc1 [Example 362, (4-Morpholin-4-yl-phenyl)-(7-phenylaminomethyl-pyrrolo[2,1-f][1,2,4]triazin-2-yl)-amine] |  |  | 1000 to 10000 nM | < 100 nM |
| COc1ncccc1-c1ccc2cnc(Nc3ccc4c(c3)CCN(CC(=O)N(C)C)CC4)nn12 [Example 1572] |  |  | 100 to 1000 nM | < 100 nM |
| CC(C)(C)NS(=O)(=O)c1cccc(-c2ccc3cnc(Nc4ccc5c(c4)CS(=O)(=O)C5)nn23)c1 [Example 663, N-tert-Butyl-3-[2-(2,2-dioxo-2,3-dihydro-1H-2$1(6)-benzo[c]thiophen-5-ylamino)-pyrrolo[2,1-f][1,2,4]triazin-7-yl]-benzenesulfonamide] | 100 to 1000 nM | < 100 nM |  |  |
| COc1cc(C2CCNCC2O)ccc1Nc1ncc2ccc(-c3cccc4c3OCC4)n2n1 (stereo not shown) [Example 718, 4-{4-[7-(2,3-Dihydro-benzofuran-7-yl)-pyrrolo[2,1-f][1,2,4]triazin-2-ylamino]-3-methoxy-phenyl}-piperidin-3-ol] | < 100 nM | < 100 nM |  |  |
| COc1cc(Nc2ncc3ccc(-c4cccc(S(C)(=O)=O)c4)n3n2)ccc1C1CCN(CC(N)=O)CC1 [Example 923, 2-(4-{4-[7-(3-Methanesulfonyl-phenyl)-pyrrolo[2,1-f][1,2,4]triazin-2-ylamino]-2-methoxy-phenyl}-piperidin-1-yl)-acetamide] | 100 to 1000 nM | < 100 nM |  |  |
| COc1ccc(OC)c(-c2ccc3cnc(Nc4ccc(N5CCN(C)CC5)cc4)nn23)c1 [Example 425, [7-(2,5-Dimethoxy-phenyl)-pyrrolo[2,1-f][1,2,4]triazin-2-yl]-[4-(4-methyl-piperazin-1-yl)-phenyl]-amine] |  |  | 100 to 1000 nM | < 100 nM |
| CS(=O)(=O)c1cccc(-c2ccc3cnc(Nc4ccc(Cl)c(OC[C@H]5CCCN5)c4)nn23)c1 [Example 1021, [4-Chloro-3-((R)-1-pyrrolidin-2-ylmethoxy)-phenyl]-[7-(3-methanesulfonyl-phenyl)-pyrrolo[2,1-f][1,2,4]triazin-2-yl]-amine] | 1000 to 10000 nM | < 100 nM |  |  |
| CC(C)(C)NS(=O)(=O)c1cccc(-c2ccc3cnc(Nc4ccc5c(c4)CCN(CC(N)=O)C5)nn23)c1 [Example 920, 2-{6-[7-(3-tert-Butylsulfamoyl-phenyl)-pyrrolo[2,1-f][1,2,4]triazin-2-ylamino]-3,4-dihydro-1H-isoquinolin-2-yl}-acetamide] | 100 to 1000 nM | < 100 nM |  |  |
| CC(C)(C)NS(=O)(=O)c1cccc(-c2ccc3cnc(Nc4cccc(C(=O)N5CCOCC5)c4)nn23)c1 [Example 892, N-tert-Butyl-3-{2-[3-(morpholine-4-carbonyl)-phenylamino]-pyrrolo[2,1-f][1,2,4]triazin-7-yl}-benzenesulfonamide] | 1000 to 10000 nM | < 100 nM |  |  |

— patent publication US8471005B2 (Cephalon, Inc., priority 2008, dated 2013)
